Test results published in patent US11051515B2, “3-acyl-benzamides and their use as herbicides” (Bayer Aktiengesellschaft, priority 2017, dated 2021).

How the values were obtained:
STEME = assay: Pre-emergence action against STEME; type: in vivo, Stellaria media; settings: Stellaria media, 504 h; Dosage 320 g/ha, pre-emergence
Method in brief: (§1)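 Seeds sown in sandy loam in wood-fiber pots and covered with soil. Greenhouse growth; visual damage scored after 3 weeks versus untreated controls (100% = dead, 0% = like control).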

SETVI [1] = assay: Pre-emergence action against SETVI; type: in vivo, Setaria viridis; settings: Setaria viridis, 504 h; pre-emergence, dosage 320 g/ha, scored visually after 3 weeks vs untreated controls; read-out: SETVI (Table B8, pre-emergence herbicidal activity)
Method in brief: as §1

VIOTR = assay: Pre-emergence action against VIOTR; type: in vivo, Viola tricolor; settings: Viola tricolor, 504 h; Dosage 320 g/ha, pre-emergence
Method in brief: as §1

VERPE = assay: Post-emergence action against VERPE; type: in vivo, Veronica persica; settings: Veronica persica, 504 h, dosage 80 g/ha
Method in brief: (§2)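 Weeds grown in sandy loam in greenhouse, treated at one-leaf stage (2–3 weeks after sowing) with WP or EC formulations sprayed as aqueous suspension/emulsion at 600 to […] water with 0.2% wetting agent. Visual rating after about 3 weeks versus untreated controls, as % herbicidal action (100% = plants dead, 0% = like control).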

PHBPU [2] = assay: Pre-emergence action against PHBPU; type: in vivo, Pharbitis purpurea; settings: Ipomoea purpurea, 504 h; Dosage 320 g/ha, pre-emergence
Method in brief: as §1

ECHCG [3] = assay: Post-emergence action against ECHCG; type: in vivo, Echinochloa crus-galli; settings: Echinochloa crus-galli, 504 h; post-emergence, dosage 80 g/ha, visual assessment about 3 weeks after treatment vs untreated controls; read-out: Post-emergence action against ECHCG (herbicidal action in percent)
Method in brief: as §2

ALOMY [4] = assay: Post-emergence action against ALOMY; type: in vivo, Alopecurus myosuroides; settings: Alopecurus myosuroides, 504 h; Dosage 80 g/ha, post-emergence
Method in brief: as §2

MATIN [5] = assay: Post-emergence action against MATIN; type: in vivo, Matricaria inodora; settings: Tripleurospermum inodorum, 504 h; post-emergence, dosage 80 g/ha, visual assessment about 3 weeks after treatment vs untreated controls; read-out: Post-emergence action against MATIN (herbicidal action in percent)
Method in brief: as §2

ECHCG [6] = assay: Pre-emergence action against ECHCG; type: in vivo, Echinochloa crus-galli; settings: Echinochloa crus-galli, 504 h; pre-emergence, dosage 320 g/ha, scored visually after 3 weeks vs untreated controls; read-out: Pre-emergence action against ECHCG (herbicidal activity)
Method in brief: as §1

MATIN [7] = assay: Pre-emergence action against MATIN; type: in vivo, Matricaria inodora; settings: Tripleurospermum inodorum, 504 h; Dosage 320 g/ha, pre-emergence
Method in brief: as §1

ABUTH = assay: Post-emergence action against ABUTH; type: in vivo, Abutilon theophrasti; settings: Abutilon theophrasti, 504 h; post-emergence, dosage 80 g/ha, visual assessment about 3 weeks after treatment vs untreated controls; read-out: Post-emergence action against ABUTH (herbicidal action in percent)
Method in brief: as §2

ALOMY [8] = assay: Pre-emergence action against ALOMY; type: in vivo, Alopecurus myosuroides; settings: Alopecurus myosuroides, 504 h; dosage 320 g/ha; pre-emergence; scored visually after 3 weeks vs untreated controls; 100% = plants have died, 0% = like control plants; read-out: Pre-emergence action against ALOMY (herbicidal activity in percent)
Method in brief: as §1

POLCO = assay: Post-emergence action against POLCO; type: in vivo, Polygonum convolvulus; settings: Fallopia convolvulus, 504 h; post-emergence, dosage 80 g/ha
Method in brief: as §2

SETVI [9] = assay: Post-emergence action against SETVI; type: in vivo, Setaria viridis; settings: Setaria viridis, 504 h; post-emergence, dosage 80 g/ha, visual assessment about 3 weeks after treatment vs untreated controls; read-out: Post-emergence action against SETVI (herbicidal action in percent)
Method in brief: as §2

PHBPU [10] = assay: Post-emergence action against PHBPU; type: in vivo, Pharbitis purpurea; settings: Ipomoea purpurea, 504 h; post-emergence, dosage 80 g/ha
Method in brief: as §2

AMARE [11] = assay: Post-emergence action against AMARE; type: in vivo, Amaranthus retroflexus; settings: Amaranthus retroflexus, 504 h; post-emergence, dosage 80 g/ha, visual assessment about 3 weeks after treatment vs untreated controls; read-out: Post-emergence action against AMARE (herbicidal action in percent)
Method in brief: as §2

AMARE [12] = assay: Pre-emergence action against AMARE; type: in vivo, Amaranthus retroflexus; settings: Amaranthus retroflexus, 504 h; pre-emergence, dosage 320 g/ha, scored visually after 3 weeks vs untreated controls; read-out: Pre-emergence action against AMARE (herbicidal activity)
Method in brief: as §1

CYPES [13] = assay: Post-emergence action against CYPES; type: in vivo, Cyperus esculentus; settings: Cyperus esculentus, 504 h; post-emergence, dosage 80 g/ha, visual assessment about 3 weeks after treatment vs untreated controls; read-out: Post-emergence action against CYPES (herbicidal action in percent)
Method in brief: as §2

CYPES [14] = assay: Pre-emergence action against CYPES; type: in vivo, Cyperus esculentus; settings: Cyperus esculentus, 504 h; pre-emergence, dosage 320 g/ha, scored visually after 3 weeks vs untreated controls; read-out: Pre-emergence action against CYPES (herbicidal activity)
Method in brief: as §1

CCCC(=O)c1c(C(F)(F)F)ccc(C(=O)Nc2nnnn2C)c1C [1-16]
100%: pest or weed control at 320 g/ha (STEME) | pest or weed control at 320 g/ha (SETVI [1]) | pest or weed control at 320 g/ha (VIOTR) | pest or weed control at 80 g/ha (MATIN [5]) | pest or weed control at 320 g/ha (ECHCG [6]) | pest or weed control at 320 g/ha (MATIN [7]) | pest or weed control at 80 g/ha (ABUTH) | pest or weed control at 80 g/ha (POLCO) | pest or weed control at 80 g/ha (PHBPU [10]) | pest or weed control at 80 g/ha (AMARE [11]) | pest or weed control at 320 g/ha (AMARE [12])
90%: pest or weed control at 80 g/ha (VERPE) | pest or weed control at 320 g/ha (PHBPU [2]) | pest or weed control at 80 g/ha (ECHCG [3]) | pest or weed control at 80 g/ha (ALOMY [4]) | pest or weed control at 320 g/ha (ALOMY [8]) | pest or weed control at 80 g/ha (SETVI [9])

CC(=O)c1c(I)ccc(C(=O)Nc2nnnn2C)c1Cl [1-192]
90%: pest or weed control at 320 g/ha (CYPES [14])
100%: pest or weed control at 320 g/ha (STEME) | pest or weed control at 320 g/ha (SETVI [1]) | pest or weed control at 320 g/ha (VIOTR) | pest or weed control at 320 g/ha (PHBPU [2]) | pest or weed control at 80 g/ha (ECHCG [3]) | pest or weed control at 80 g/ha (MATIN [5]) | pest or weed control at 320 g/ha (ECHCG [6]) | pest or weed control at 320 g/ha (MATIN [7]) | pest or weed control at 80 g/ha (ABUTH) | pest or weed control at 320 g/ha (ALOMY [8]) | pest or weed control at 80 g/ha (POLCO) | pest or weed control at 80 g/ha (SETVI [9]) | pest or weed control at 80 g/ha (AMARE [11]) | pest or weed control at 320 g/ha (AMARE [12])
80%: pest or weed control at 80 g/ha (CYPES [13]) | pest or weed control at 80 g/ha (ALOMY [4]) | pest or weed control at 80 g/ha (PHBPU [10])

CSc1c(C(=O)Nc2nnnn2C)ccc(C(F)F)c1C(=O)C1CC1 [1-67]
100%: pest or weed control at 320 g/ha (STEME) | pest or weed control at 320 g/ha (SETVI [1]) | pest or weed control at 320 g/ha (VIOTR) | pest or weed control at 80 g/ha (VERPE) | pest or weed control at 320 g/ha (PHBPU [2]) | pest or weed control at 80 g/ha (ECHCG [3]) | pest or weed control at 80 g/ha (ALOMY [4]) | pest or weed control at 80 g/ha (MATIN [5]) | pest or weed control at 320 g/ha (ECHCG [6]) | pest or weed control at 320 g/ha (MATIN [7]) | pest or weed control at 80 g/ha (ABUTH) | pest or weed control at 320 g/ha (ALOMY [8]) | pest or weed control at 80 g/ha (POLCO) | pest or weed control at 80 g/ha (SETVI [9]) | pest or weed control at 80 g/ha (AMARE [11]) | pest or weed control at 320 g/ha (AMARE [12])
80%: pest or weed control at 80 g/ha (PHBPU [10])
90%: pest or weed control at 80 g/ha (CYPES [13]) | pest or weed control at 320 g/ha (CYPES [14])

Cn1nnnc1NC(=O)c1ccc(C(F)(F)F)c(C(=O)C2CC2)c1Cl [1-141]
100%: pest or weed control at 320 g/ha (STEME) | pest or weed control at 320 g/ha (SETVI [1]) | pest or weed control at 320 g/ha (VIOTR) | pest or weed control at 80 g/ha (VERPE) | pest or weed control at 320 g/ha (PHBPU [2]) | pest or weed control at 80 g/ha (ECHCG [3]) | pest or weed control at 80 g/ha (ALOMY [4]) | pest or weed control at 320 g/ha (ECHCG [6]) | pest or weed control at 320 g/ha (MATIN [7]) | pest or weed control at 80 g/ha (ABUTH) | pest or weed control at 320 g/ha (ALOMY [8]) | pest or weed control at 80 g/ha (POLCO) | pest or weed control at 320 g/ha (CYPES [14]) | pest or weed control at 80 g/ha (SETVI [9]) | pest or weed control at 80 g/ha (PHBPU [10]) | pest or weed control at 80 g/ha (AMARE [11]) | pest or weed control at 320 g/ha (AMARE [12])
90%: pest or weed control at 80 g/ha (CYPES [13]) | pest or weed control at 80 g/ha (MATIN [5])
